According to US7723358B2, “Aroyl-O-piperidine derivatives for the treatment of diabetes-related problems” (Merck Patent GmbH, priority 2004, dated 2010):
pIC50: −log10 of the molar value.

Experiments:
[1] = target: T1, microsomal triglyceride transfer protein (MTP) (Mesocricetus auratus, UniProt P55158); assay: Inhibition of MTP activity: transfer of [3H]-triolein from donor liposomes to biotinylated LDL, SPA; assay type: biochemical; details: MTP from golden hamster liver; incubation 18-24 hours at 37° C.; read-out: IC50, concentration that allows a 50% inhibition of MTP
T1 construct: The supernatant comprising the soluble MTP is dialysed against Tris/HCl 150 mM; from tissue; host or cells: golden hamster liver microsomes, deoxycholate-solubilised supernatant, dialysed
T1 sequence (P55158 19-895): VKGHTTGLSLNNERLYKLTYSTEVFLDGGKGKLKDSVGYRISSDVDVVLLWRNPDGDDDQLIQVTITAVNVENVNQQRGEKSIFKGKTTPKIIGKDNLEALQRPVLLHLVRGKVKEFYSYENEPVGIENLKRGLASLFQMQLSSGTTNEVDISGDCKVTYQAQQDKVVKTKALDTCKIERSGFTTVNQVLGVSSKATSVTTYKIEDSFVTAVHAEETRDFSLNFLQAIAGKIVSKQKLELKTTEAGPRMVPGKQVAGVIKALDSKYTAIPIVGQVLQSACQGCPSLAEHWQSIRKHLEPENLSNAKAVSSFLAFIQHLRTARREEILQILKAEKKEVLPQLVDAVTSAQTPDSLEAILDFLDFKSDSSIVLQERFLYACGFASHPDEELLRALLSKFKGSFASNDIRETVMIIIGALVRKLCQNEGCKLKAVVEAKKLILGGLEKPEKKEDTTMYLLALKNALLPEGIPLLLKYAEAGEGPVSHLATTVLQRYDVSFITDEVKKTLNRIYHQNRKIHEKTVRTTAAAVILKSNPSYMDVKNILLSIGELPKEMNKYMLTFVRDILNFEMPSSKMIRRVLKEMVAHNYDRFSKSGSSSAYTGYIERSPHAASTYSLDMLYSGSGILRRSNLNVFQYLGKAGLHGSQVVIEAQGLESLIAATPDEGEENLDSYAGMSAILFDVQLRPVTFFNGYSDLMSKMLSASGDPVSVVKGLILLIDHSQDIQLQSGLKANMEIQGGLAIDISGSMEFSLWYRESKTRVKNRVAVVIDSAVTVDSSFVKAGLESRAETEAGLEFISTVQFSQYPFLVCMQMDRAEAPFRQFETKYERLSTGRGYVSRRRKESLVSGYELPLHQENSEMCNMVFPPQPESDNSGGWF
In short: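 Soluble MTP was extracted with deoxycholate from golden hamster liver microsomes. It was incubated with [3H]-triolein/phosphatidylcholine donor liposomes, biotinylated LDL acceptors and compound in DMSO in HEPES/NaCl/BSA buffer, pH 7.4, for 18-24 h at 37° C. Transfer was read with streptavidin SPA beads, and IC50 was taken as 50% inhibition of transfer.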

[2] = test system: apo B secretion in HepG2 cells; assay: Secretion of apo B in the HepG2 human cell line (sandwich-ELISA); assay type: cell-based; details: 24 hours incubation, culture supernatant, read-out: IC50, concentration that produces a 50% inhibition of apo B secretion in the HepG2 cells
Procedure: Analysis of the Secretion of apo B in the HepG2 Human Cell Line:
The activity of a compound according to the invention can be evaluated by measuring the inhibition of apo B secretion in HepG2 cells.
The HepG2 cells (ECACC—No. 85011430) are used as model in the study of the in vitro hepatic secretion of lipoproteins (Dixon J. and Ginsberg H., J., Lipid. Res., 1993, 34, 167-179).
The HepG2 cells are cultured in Dulbecco's modified Eagle's medium comprising 10% foetal calf serum (DMEM and FBS—Gibco) in 96-well plates under an atmosphere of 5% carbon dioxide for 24 hours (about 70% confluence).
The test compounds are dissolved at a concentration of 2 or 10 mM in dimethyl sulfoxide (DMSO). Serial dilutions (1:3.16) are made in DMSO and are added (1:200—Robot Multimek Beckman) to the growth medium (200 μL) and then finally incubated for 24 hours in the various wells containing the HepG2 cells.
The 24-hour culture supernatant diluted to 1:5 (phosphate-buffered saline:PBS comprising 1% bovine serum albumin) is tested according to a sandwich-ELISA method specific for human apo B.
The results are expressed in terms of IC50, i.e. the concentration that produces a 50% inhibition of apo B secretion in the HepG2 cells.

| SMILES | pIC50 [1] | pIC50 [2] |
| --- | --- | --- |
| COc1ccc(CC(=O)N2CCC(Oc3cccc(NC(=O)c4cccc(C)c4-c4ccc(OC(F)(F)F)cc4)c3)CC2)cc1 [Example 101, N-[3-[[1-[2-(4-methoxyphenyl)acetyl]-4-piperidinyl]oxy]phenyl]-6-methyl-4′-(trifluoromethoxy)[1,1′-biphenyl]-2-carboxamide] | 6.80 | 7.03 |
| CC(=O)OCC(=O)N1CCC(Oc2cccc(NC(=O)c3cccc(C)c3-c3ccc(OC(F)(F)F)cc3)c2)CC1 [Example 102, N-[3-[[1-[2-(acetyloxy)acetyl]-4-piperidin-yl]oxy]phenyl]-6-methyl-4′-(trifluorometh-oxy)[1,1′-biphenyl]-2-carboxamide] | 6.67 | 7.59 |
| COc1ccc(C(=O)N2CCC(Oc3cccc(NC(=O)c4cccc(C)c4-c4ccc(OC(F)(F)F)cc4)c3)CC2)cc1OC [Example 103] | 6.89 | 7.16 |
| C/C=C/C(=O)N1CCC(Oc2cccc(NC(=O)c3cccc(C)c3-c3ccc(OC(F)(F)F)cc3)c2)CC1 [Example 128, 6-methyl-N-[3-[[1-[(2E)-1-oxo-2-butenyl]-4-piperidinyl]oxy]phenyl]-4′-(trifluorometh-oxy)[1,1′-biphenyl]-2-carboxamide] | 7.00 | 7.65 |
| Cc1cccc(C(=O)Nc2cccc(OC3CCN(C(=O)C(C)C)CC3)c2)c1-c1ccc(OC(F)(F)F)cc1 [Example 142, 6-methyl-N-[3-[[1-(2-methyl-1-oxopropyl)-4-piperidinyl]oxy]phenyl]-4′-(trifluorometh-oxy)[1,1′-biphenyl]-2-carboxamide] | 6.78 | 7.14 |
